Assay results taken from ChEMBL document CHEMBL1201862, “PubChem BioAssay data set” (2004).
Structures can show the parent of a compound that is named as a salt.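 Following 48 hours of exposure in 96-well plates, responses at five concentrations were used to interpolate endpoints linearly. GI50 = concentration required for 50% inhibition of growth.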 Active and inactive are the calls of the source. Cut-off read from the data, not from the text of the source: active = GI50 up to about 1.1 µM and inactive = higher.

How the values were obtained:
Experiment in all cases: DTP human tumour cell line panel, 48 h
M14 = tested on: M14
HOP-62 = tested on: HOP-62
NCI-H226 = tested on: NCI-H226
UACC-257 = tested on: UACC-257
KM12 = tested on: KM12
MOLT-4 = tested on: MOLT-4
SR = tested on: SR
OVCAR-4 = tested on: OVCAR-4
UACC-62 = tested on: UACC-62
OVCAR-8 = tested on: OVCAR-8
SNB-19 = tested on: SNB-19
786-0 = tested on: 786-0
NCI-H460 = tested on: NCI-H460
SF-295 = tested on: SF-295
A549 = tested on: A549

Row | Structure (SMILES) | GI50 (M14) | GI50 (HOP-62) | GI50 (NCI-H226) | GI50 (UACC-257) | GI50 (KM12) | GI50 (MOLT-4) | GI50 (SR) | GI50 (OVCAR-4) | GI50 (UACC-62) | GI50 (OVCAR-8) | GI50 (SNB-19) | GI50 (786-0) | GI50 (NCI-H460) | GI50 (SF-295) | GI50 (A549)
1 | Cc1cccc2[s+]snc12 | > 68.5 µM (inactive) | > 100 µM (inactive) | > 100 µM (inactive) | > 76.9 µM (inactive) | > 100 µM (inactive) | 25.8 µM (inactive) | 31.3 µM (inactive) | > 100 µM (inactive) | > 100 µM (inactive) | > 45 µM (inactive) | > 100 µM (inactive) | > 76.9 µM (inactive) | > 100 µM (inactive) | > 100 µM (inactive) | > 100 µM (inactive)
2 | O=C(/C=C/c1ccccc1Cl)c1ccc(Cl)c(Cl)c1 | 17.5 µM (inactive) | 23 µM (inactive) | > 100 µM (inactive) | 19.7 µM (inactive) | 15.8 µM (inactive) | 21.3 µM (inactive) | 21.7 µM (inactive) | 12.9 µM (inactive) | 19.1 µM (inactive) | 17.7 µM (inactive) | 16.4 µM (inactive) | 16.3 µM (inactive) | 34.5 µM (inactive) | 17.3 µM (inactive) | 19.5 µM (inactive)
3 | O=C(CCc1nnc2s/c(=C\c3ccc(Cl)c(Cl)c3)c(=O)n12)Nc1ccc(Cl)c(Cl)c1 | > 100 µM (inactive) | > 100 µM (inactive) | > 100 µM (inactive) | > 100 µM (inactive) | 43.4 µM (inactive) | 20.7 µM (inactive) | 24.8 µM (inactive) | 73.5 µM (inactive) | > 100 µM (inactive) | 20.4 µM (inactive) | 45 µM (inactive) | > 100 µM (inactive) | > 100 µM (inactive) | 46.1 µM (inactive) | > 100 µM (inactive)
4 | CC(=O)O[C@H]1CCC2[C@@H]3CCC4Nc5[nH]ncc5C[C@]4(C)C3CC[C@@]21C (stereo partly specified) | 21.4 µM (inactive) | > 100 µM (inactive) | > 100 µM (inactive) | 22.4 µM (inactive) | 64.1 µM (inactive) | 22.9 µM (inactive) |  | 81.1 µM (inactive) | 18.9 µM (inactive) | 34.9 µM (inactive) | 26.4 µM (inactive) | > 100 µM (inactive) | > 100 µM (inactive) | > 100 µM (inactive) | > 100 µM (inactive)
5 | CCOC(=O)N1CCN(P(=O)(Nc2ccc3[nH]c(NC(=O)OC)nc3c2)Oc2ccccc2)CC1 (stereo unspecified) | > 100 µM (inactive) |  | > 100 µM (inactive) | > 100 µM (inactive) | > 100 µM (inactive) | > 100 µM (inactive) |  | > 100 µM (inactive) | 51.1 µM (inactive) | > 100 µM (inactive) |  | > 100 µM (inactive) | > 100 µM (inactive) |  | > 100 µM (inactive)
6 | COc1ccc(C(C#N)NNC(=O)c2ccccc2O)cc1OC (stereo unspecified) | 0.75 µM (active) | 13.2 µM (inactive) | 1.96 µM (inactive) | 3.84 µM (inactive) | 0.807 µM (active) | 3.04 µM (inactive) | 0.463 µM (active) | 1.7 µM (inactive) | 0.31 µM (active) | 1.46 µM (inactive) |  | 1.24 µM (inactive) | 0.478 µM (active) | 1.24 µM (inactive) | 0.377 µM (active)
7 | C[n+]1cc(C(O)c2ccc3c(c2)OCO3)c2ccccc2c1 (stereo unspecified) | 25.4 µM (inactive) | 37.7 µM (inactive) | 20.6 µM (inactive) | 18.6 µM (inactive) | 38.3 µM (inactive) | 17.9 µM (inactive) |  |  | 22.9 µM (inactive) | 33.3 µM (inactive) | 44.3 µM (inactive) | 36.5 µM (inactive) | 40.3 µM (inactive) | 28.6 µM (inactive) | 33.3 µM (inactive)
8 | Cc1[nH]c2ccccc2c1C(=O)CC1(O)C(=O)Nc2ccccc21 (stereo unspecified) | > 100 µM (inactive) | > 100 µM (inactive) | > 100 µM (inactive) | > 100 µM (inactive) | > 100 µM (inactive) | > 100 µM (inactive) | > 100 µM (inactive) | > 100 µM (inactive) | > 100 µM (inactive) |  | > 100 µM (inactive) | > 100 µM (inactive) | > 100 µM (inactive) | > 100 µM (inactive) | > 100 µM (inactive)
9 | Nn1c(-c2cccc(Cl)c2)nc2ccccc2c1=O | > 100 µM (inactive) | > 100 µM (inactive) | > 100 µM (inactive) | > 100 µM (inactive) | > 100 µM (inactive) | 60.1 µM (inactive) |  | > 100 µM (inactive) | > 100 µM (inactive) | > 100 µM (inactive) | > 100 µM (inactive) | > 100 µM (inactive) | > 100 µM (inactive) | > 100 µM (inactive) | > 100 µM (inactive)
10 | COc1cc2c(cc1OC)C(C(CO)CO)N(CC(O)CCl)CC2 (stereo unspecified) | > 100 µM (inactive) | > 100 µM (inactive) | > 100 µM (inactive) | > 100 µM (inactive) | > 100 µM (inactive) | > 100 µM (inactive) |  | > 100 µM (inactive) | > 100 µM (inactive) | > 100 µM (inactive) | > 100 µM (inactive) | > 100 µM (inactive) | > 100 µM (inactive) | > 100 µM (inactive) | > 100 µM (inactive)
11 | CSc1nc(Cl)c(Br)c(Sc2nc(N)nc3nc[nH]c23)n1 | 4.56 µM (inactive) | 2 µM (inactive) | 10.5 µM (inactive) | 13.9 µM (inactive) | 5.18 µM (inactive) | 4.2 µM (inactive) | 3.48 µM (inactive) | 11 µM (inactive) | 3.52 µM (inactive) | 11 µM (inactive) | 16.6 µM (inactive) | 3.27 µM (inactive) | 5.07 µM (inactive) | 4.72 µM (inactive) | 19.5 µM (inactive)
12 | CC1CC2C(=O)NC(=O)C2c2[nH]c3ccccc3c21 (stereo unspecified) | > 100 µM (inactive) | 74 µM (inactive) | 67.1 µM (inactive) |  | > 100 µM (inactive) | > 100 µM (inactive) | > 100 µM (inactive) | 92.7 µM (inactive) |  | > 100 µM (inactive) |  | > 100 µM (inactive) | > 100 µM (inactive) | > 100 µM (inactive) | > 100 µM (inactive)
13 | CC(=O)OCC(OC(C)=O)C(OC(C)=O)C(OC(C)=O)C(=O)CNn1c(-c2ccccc2Cl)nc2ccccc2c1=O (stereo unspecified) | > 100 µM (inactive) | > 100 µM (inactive) | > 100 µM (inactive) | > 100 µM (inactive) | > 100 µM (inactive) | > 100 µM (inactive) | 61.9 µM (inactive) | > 100 µM (inactive) | > 100 µM (inactive) | > 100 µM (inactive) | > 100 µM (inactive) | > 100 µM (inactive) | > 100 µM (inactive) | > 100 µM (inactive) | > 100 µM (inactive)
14 | Cc1nc2c(n1CCO)C(=O)c1ccccc1C2=O | 21.4 µM (inactive) | 28.6 µM (inactive) | > 100 µM (inactive) | 16.6 µM (inactive) | 37.7 µM (inactive) | 28.9 µM (inactive) | 26.4 µM (inactive) | 26.2 µM (inactive) | 16.5 µM (inactive) | 30.3 µM (inactive) | 43 µM (inactive) | 46.9 µM (inactive) | 27.3 µM (inactive) | 48.4 µM (inactive) | 29.4 µM (inactive)
15 | CCOC(=O)CC(C)C1(C=O)CCCCC1=O (stereo unspecified) | 29.6 µM (inactive) | > 100 µM (inactive) | > 100 µM (inactive) | > 100 µM (inactive) | > 100 µM (inactive) | > 100 µM (inactive) | 19.9 µM (inactive) | 79.8 µM (inactive) | > 100 µM (inactive) | > 100 µM (inactive) | > 100 µM (inactive) | 31 µM (inactive) | 60 µM (inactive) | > 100 µM (inactive) | > 100 µM (inactive)
16 | Nc1ccc(C(=O)CC2(O)C(=O)Nc3ccccc32)cc1 (stereo unspecified) | > 100 µM (inactive) |  | > 100 µM (inactive) | > 100 µM (inactive) |  | > 100 µM (inactive) |  | > 100 µM (inactive) | > 100 µM (inactive) | > 100 µM (inactive) | > 100 µM (inactive) | > 100 µM (inactive) | > 100 µM (inactive) | > 100 µM (inactive) | > 100 µM (inactive)
17 | CCCCCCCCCCCCCCNCC(OCC)OCC | 14.1 µM (inactive) | 16.5 µM (inactive) | 18.4 µM (inactive) | 16.7 µM (inactive) | 10.3 µM (inactive) |  |  | 13.6 µM (inactive) | 18.1 µM (inactive) | 18.5 µM (inactive) | 16.5 µM (inactive) | 16.9 µM (inactive) | 17.1 µM (inactive) | 16.7 µM (inactive) | 19.4 µM (inactive)
18 | CC1CC2(CCC1OCc1ccccc1)OCCO2 (stereo unspecified) | > 100 µM (inactive) | > 100 µM (inactive) |  | > 100 µM (inactive) | > 100 µM (inactive) | > 100 µM (inactive) |  | > 100 µM (inactive) | > 100 µM (inactive) | > 100 µM (inactive) | > 100 µM (inactive) | > 100 µM (inactive) | > 100 µM (inactive) | > 100 µM (inactive) | > 100 µM (inactive)
19 | N#C/C(=C1\N=NC(N)=C(c2ccc(Cl)cc2)C1=O)c1ccc(Cl)cc1 | > 100 µM (inactive) | > 100 µM (inactive) | > 100 µM (inactive) | > 100 µM (inactive) | > 100 µM (inactive) | > 100 µM (inactive) | > 100 µM (inactive) | > 100 µM (inactive) | > 100 µM (inactive) | > 100 µM (inactive) | > 100 µM (inactive) | > 100 µM (inactive) | > 100 µM (inactive) | > 100 µM (inactive) | > 100 µM (inactive)
20 | CC(NC(C)(C)C)C(=O)c1cccc(Cl)c1 (stereo unspecified) [BUPROPION HYDROCHLORIDE] | > 100 µM (inactive) | > 100 µM (inactive) |  | > 100 µM (inactive) | > 100 µM (inactive) | > 100 µM (inactive) |  | > 100 µM (inactive) | > 100 µM (inactive) | > 100 µM (inactive) |  | > 100 µM (inactive) | > 100 µM (inactive) | > 100 µM (inactive) | > 100 µM (inactive)
